Consider 19 compounds from ChEMBL document CHEMBL4359924, “Discovery of a novel 3,4-dimethylcinnoline carboxamide M4 positive allosteric modulator (PAM) chemotype via scaffold hopping” (Bioorg Med Chem Lett, 2019).

Where only a bound is given, the exact number is not on record here.

Data set [1] addresses Muscarinic acetylcholine receptor M4 (Homo sapiens) (UniProt P08173). Nature of the data set: Positive allosteric modulation of human M4 receptor expressed in CHO cells co-expressing Gqi5 assessed as increase in acetylcholine-induced calcium mobilization incubated with EC20 ACh for 140 secs and subsequent EC80 Ach addition further incubated for 120 secs by Fluo-4-AM dye based fluorescence ….

A short description of data set [2]: Intrinsic clearance in human microsomes. It is filed as ADME, Microsome.
Data set [3] can be described thus: Intrinsic clearance in rat microsomes. It is filed as ADME, Microsome.
Data set [4] can be described thus: Fraction unbound in rat plasma. It is filed as ADME, cell-free.
Data set [5] in a line: Fraction unbound in human plasma. It is filed as ADME, cell-free.
Data set [6] is described as follows: Fraction unbound in rat brain. The data set is classed as ADME, tissue-based.
A short description of data set [7]: Brain to plasma partition coefficient, Kp of the compound in Sprague-Dawley rat at 0.2 mg/kg, iv measured for 0.25 hrs. The conditions noted are these: brain and plasma. It is filed as ADME, organism-based.
Data set [8] in a line: Unbound brain to plasma concentration ratio in Sprague-Dawley rat at 0.2 mg/kg, iv measured for 0.25 hrs. It is filed as ADME, organism-based. To be noted: brain and plasma, read-out: K(p,uu,brain).

Chain of Muscarinic acetylcholine receptor M4 (Homo sapiens) (P08173 whole entry, looked up): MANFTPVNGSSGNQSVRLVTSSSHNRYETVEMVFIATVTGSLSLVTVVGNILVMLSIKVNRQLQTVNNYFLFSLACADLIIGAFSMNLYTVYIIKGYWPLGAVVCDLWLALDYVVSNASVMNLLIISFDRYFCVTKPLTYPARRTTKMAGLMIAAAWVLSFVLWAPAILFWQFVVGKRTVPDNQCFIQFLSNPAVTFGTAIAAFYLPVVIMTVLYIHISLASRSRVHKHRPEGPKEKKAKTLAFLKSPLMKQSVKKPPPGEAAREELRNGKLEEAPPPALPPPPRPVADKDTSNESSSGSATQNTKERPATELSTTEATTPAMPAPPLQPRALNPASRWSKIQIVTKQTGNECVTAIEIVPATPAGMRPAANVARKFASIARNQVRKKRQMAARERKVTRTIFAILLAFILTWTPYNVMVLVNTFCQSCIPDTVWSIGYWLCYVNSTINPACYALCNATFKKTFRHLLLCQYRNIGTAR

As to `Cc1nnc2ccc(C(=O)NC3CN(c4cccc(Cl)n4)C3)cc2c1C`, in data set [1], the Emax worked out at 77%.

As for `Cc1nnc2ccc(C(=O)NC3CN(c4ncc(F)cc4Cl)C3)cc2c1C`, the figures for the CLint scaled in data set [2] and in data set [3] were 79 mL/min/kg and 17 mL/min/kg, respectively. The fraction unbound in data set [4] stood at 0.015; in data set [5] it was 0.048; in data set [6] it was 0.036. This compound also registered a Kp at 0.25 h in data set [7] of 0.12. Besides, the Kp uu at 0.25 h in data set [8] came to 0.29. Also, in data set [1], the Emax is 80%.

`Cc1nnc2ccc(C(=O)NC3CN(c4ncc(C(F)(F)F)cc4Cl)C3)cc2c1C`: the Emax in data set [1] was 76%.

Consider `Cc1nnc2ccc(C(=O)NC3CN(c4ncccc4F)C3)cc2c1C`, for which the Emax in data set [1] was 83%.

Take `Cc1nnc2ccc(C(=O)NC3CN(c4ncccc4Cl)C3)cc2c1C`: the Emax in data set [1] was found to be 84%.

Regarding `Cc1nnc2ccc(C(=O)NC3CN(c4cnc(C5CC5)cn4)C3)cc2c1C`, the Emax in data set [1] was determined as 80%.

As for `Cc1nnc2ccc(C(=O)NC3CN(c4ncc(C#N)cc4Cl)C3)cc2c1C`, the CLint scaled in data set [2] came out at 63 mL/min/kg; in data set [3], 17 mL/min/kg. The unbound share (fraction unbound) in data set [4] came out at 0.008; in data set [5], 0.03; in data set [6], 0.042. For the same compound, the partition ratio (Kp) at 0.25 h in data set [7] stood at 0.04. Moreover, in data set [8], the Kp uu at 0.25 h was determined as 0.21. Also, the Emax in data set [1] came out at 72%.

As to `Cc1nnc2ccc(C(=O)NC3CN(c4ncc(OC(C)C)cn4)C3)cc2c1C`, the maximal effect (Emax) in data set [1] came to 88%.

For `Cc1nnc2ccc(C(=O)NC3CN(c4ncc(C5CC5)cc4Cl)C3)cc2c1C`, the maximal response (Emax) in data set [1] was found to be 77%.

`Cc1nnc2ccc(C(=O)NC3CN(c4ccc(F)c(F)c4)C3)cc2c1C`: the CLint scaled came out at 50 mL/min/kg in data set [2] and 26 mL/min/kg in data set [3]. Moreover, the free fraction (fraction unbound) in data set [4] worked out at 0.002; in data set [5], 0.051; in data set [6], 0.022. The Kp at 0.25 h in data set [7] is less than 0.05. For the same compound, in data set [8], the Kp uu at 0.25 h was less than 0.56. In data set [1], the maximal response (Emax) was 82%.

Take `Cc1nnc2ccc(C(=O)NC3CN(c4cc(Cl)ncc4Cl)C3)cc2c1C`: the values for the intrinsic metabolic clearance (CLint scaled) in data set [2] and in data set [3] were 60 mL/min/kg and 32 mL/min/kg, respectively. In addition, the fraction unbound came out at 0.017 in data set [4], 0.06 in data set [5] and 0.036 in data set [6]. In data set [7], this compound had a Kp at 0.25 h of 0.03. Further, the Kp uu at 0.25 h in data set [8] turned out to be 0.06. For the same compound, the maximum response (Emax) in data set [1] is 92%.

For the compound `Cc1nnc2ccc(C(=O)NC3CN(c4ccc(C#N)cn4)C3)cc2c1C`, the maximal response (Emax) in data set [1] was 81%.

On to `Cc1nnc2ccc(C(=O)NC3CN(c4cccc(F)n4)C3)cc2c1C`, for which the maximal response (Emax) in data set [1] turned out to be 84%.

As for `Cc1nnc2ccc(C(=O)NC3CN(c4ncc(C(F)(F)F)cn4)C3)cc2c1C`, the Emax in data set [1] came to 77%.

Regarding `Cc1nnc2ccc(C(=O)NC3CN(c4cccc(C(F)(F)F)n4)C3)cc2c1C`, in data set [1], the Emax amounted to 64%.

With `COc1cc(N2CC(NC(=O)c3ccc4nnc(C)c(C)c4c3)C2)c(Cl)cn1`, the intrinsic metabolic clearance (CLint scaled) amounted to 34 mL/min/kg in data set [2] and 17 mL/min/kg in data set [3]. The unbound share (fraction unbound) in data set [4] was found to be 0.012; in data set [5] it was 0.038; in data set [6] it was 0.023. For the same compound, the concentration ratio (Kp) at 0.25 h in data set [7] is 0.09. In data set [8], the Kp uu at 0.25 h was determined as 0.02. In data set [1], the maximal response (Emax) was 74%.

For `Cc1nnc2ccc(C(=O)NC3CN(c4ccc(Cl)cn4)C3)cc2c1C`, the Emax in data set [1] came to 73%.

For the compound `Cc1nnc2ccc(C(=O)NC3CN(c4ccc(OC(F)F)nc4)C3)cc2c1C`, the Emax in data set [1] was found to be 81%.

For `Cc1nnc2ccc(C(=O)NC3CN(c4ncc(Cl)cc4F)C3)cc2c1C`, the values for the CLint scaled in data set [2] and in data set [3] were 54 mL/min/kg and 12 mL/min/kg, respectively. Besides, the values for the fraction unbound in data set [4], in data set [5] and in data set [6] were 0.026, 0.032 and 0.009, respectively. In data set [7], the Kp at 0.25 h turned out to be 0.03. Besides, the Kp uu at 0.25 h in data set [8] is 0.09. Moreover, the Emax in data set [1] came to 82%.

In general, Emax refers to the maximal effect, on the per cent scale that the assay sets. By CLint scaled is commonly meant the capacity of the preparation to metabolise the compound, expressed as a volume cleared per time. Higher therefore signals faster metabolism. As a reminder, the fraction unbound is free concentration divided by total concentration. A lower fraction unbound goes with little free substance. As usually defined, the Kp is the ratio of the level in a tissue or fluid to that in plasma or blood.
